Experimental data from patent US20160106814A1, “Novel Oral Pharmaceutical Composition for Treatment of Diabetes” (NOVO NORDISK A/S, priority 2013, published 2016).
*1 amine or outer side, *2 acyl side, *3 side chain or, on linkers, in order; H or OH if unused. Where a SMILES comes first, the peptide text is derived from it. Side-chain parts run from the residue outwards. [ ]: non-standard residue; d: D form. The star is where a group is joined. Decanoyl(10-(4-HOOC-PhO)) = O=C(O)c1ccc(OCCCCCCCCCC(=O)*)cc1; γGlu = O=C(O)[C@H](CCC(=O)[*:2])N[*:1]; C14 diacid = O=C(O)CCCCCCCCCCCCC(=O)*; AEEA = NCCOCCOCC(=O)O; Aib = CC(C)(N)C(=O)O

Test: Transport of GLP-1 peptide across mucus-producing E12 cell monolayers in the presence of sodium caprate and BBI
Type: in vitro ADME
Settings: pH 7.4, apical to basolateral
Description: Buffer was then removed and the experiment initiated. […] Receiver samples (200 μl) were taken every 15 min.
In all samples with GLP-1 peptide and mannitol, the concentration of GLP-1 peptide was determined using a LOCI assay (or LC-MS assay) and scintillation counter, respectively.

[1] = 100 μM GLP-1 peptide + 13 mM sodium caprate + 0.2% BBI
[2] = 100 μM GLP-1 peptide + 13 mM sodium caprate, without BBI

SMILES	Papp A→B [1] [×10⁻⁶ cm/s]	Papp A→B [2] [×10⁻⁶ cm/s]
CC[C@H](C)[C@H](NC(=O)[C@H](Cc1ccccc1)NC(=O)[C@H](CCC(=O)O)NC(=O)[C@H](CCCCNC(=O)COCCOCCNC(=O)COCCOCCNC(=O)CC[C@H](NC(=O)CCCCCCCCCOc1ccc(C(=O)O)cc1)C(=O)O)NC(=O)[C@H](C)NC(=O)[C@H](C)NC(=O)[C@H](CCC(N)=O)NC(=O)CNC(=O)[C@H](CCC(=O)O)NC(=O)[C@H](CC(C)C)NC(=O)[C@H](Cc1ccc(O)cc1)NC(=O)[C@H](CCCCNC(=O)COCCOCCNC(=O)COCCOCCNC(=O)CC[C@H](NC(=O)CCCCCCCCCOc1ccc(C(=O)O)cc1)C(=O)O)NC(=O)[C@H](CO)NC(=O)[C@@H](NC(=O)[C@H](CC(=O)O)NC(=O)[C@H](CO)NC(=O)[C@@H](NC(=O)[C@H](Cc1ccccc1)NC(=O)[C@@H](NC(=O)CNC(=O)[C@H](CCC(=O)O)NC(=O)C(C)(C)NC(=O)[C@@H](N)Cc1c[nH]cn1)[C@@H](C)O)[C@@H](C)O)C(C)C)C(=O)N[C@@H](C)C(=O)N[C@@H](Cc1c[nH]c2ccccc12)C(=O)N[C@@H](CC(C)C)C(=O)N[C@H](C(=O)N[C@@H](CCC(N)=O)C(=O)NCC(=O)N[C@@H](CCCNC(=N)N)C(=O)NCC(=O)O)C(C)C [GLP-1 peptide 6, N{Epsilon-18}-[2-[2-[2-[[2-[2-[2-[[(4S)-4-carboxy-4-[10-(4-carboxyphenoxy)-decanoylamino]butanoyl]amino]ethoxy]ethoxy]acetyl]amino]ethoxy]ethoxy]acetyl], N{Epsilon-26}-[2-[2-[2-[[2-[2-[2-[[(4S)-4-carboxy-4-[10-(4-carboxyphenoxy)decanoylamino]butanoyl]-amino]ethoxy]ethoxy]acetyl]amino]ethoxy]ethoxy]acetyl]-[Aib8,Lys18,Gln34]-GLP-1-(7-37)-peptide]	0.296	0.159
CC[C@H](C)[C@H](NC(=O)[C@H](Cc1ccccc1)NC(=O)[C@H](CCC(=O)O)NC(=O)[C@H](CCCCNC(=O)COCCOCCNC(=O)COCCOCCNC(=O)CC[C@H](NC(=O)CCCCCCCCCOc1ccc(C(=O)O)cc1)C(=O)O)NC(=O)[C@H](C)NC(=O)[C@H](C)NC(=O)[C@H](CCC(N)=O)NC(=O)[C@H](CCC(=O)O)NC(=O)[C@H](CCC(=O)O)NC(=O)[C@H](CC(C)C)NC(=O)[C@H](Cc1ccc(O)cc1)NC(=O)[C@H](CCCCNC(=O)COCCOCCNC(=O)COCCOCCNC(=O)CC[C@H](NC(=O)CCCCCCCCCOc1ccc(C(=O)O)cc1)C(=O)O)NC(=O)[C@H](CO)NC(=O)[C@@H](NC(=O)[C@H](CC(=O)O)NC(=O)[C@H](CO)NC(=O)[C@@H](NC(=O)[C@H](Cc1ccccc1)NC(=O)[C@@H](NC(=O)CNC(=O)[C@H](CCC(=O)O)NC(=O)C(C)(C)NC(=O)[C@@H](N)Cc1c[nH]cn1)[C@@H](C)O)[C@@H](C)O)C(C)C)C(=O)N[C@@H](C)C(=O)N[C@@H](Cc1c[nH]c2ccccc12)C(=O)N[C@@H](CC(C)C)C(=O)N[C@H](C(=O)N[C@@H](CCC(N)=O)C(=O)NCC(=O)N[C@@H](CCCNC(=N)N)C(=O)NCC(=O)O)C(C)C [GLP-1 peptide 2, N{Epsilon-18}-[2-[2-[2-[[2-[2-[2-[[(4S)-4-carboxy-4-[10-(4-carboxyphenoxy)-decanoylamino]butanoyl]amino]ethoxy]ethoxy]acetyl]amino]ethoxy]ethoxy]acetyl], N{Epsilon-26}-[2-[2-[2-[[2-[2-[2-[[(4S)-4-carboxy-4-[10-(4-carboxyphenoxy)decanoylamino]butanoyl]-amino]ethoxy]ethoxy]acetyl]amino]ethoxy]ethoxy]acetyl]-[Aib8,Lys18,Glu22,Gln34]-GLP-1-(7-37)-peptide]	0.438	0.389
CC[C@H](C)[C@H](NC(=O)[C@H](Cc1ccccc1)NC(=O)[C@H](CCC(=O)O)NC(=O)[C@H](CCCCNC(=O)COCCOCCNC(=O)COCCOCCNC(=O)CC[C@H](NC(=O)CCCCCCCCCCCCC(=O)O)C(=O)O)NC(=O)[C@H](C)NC(=O)[C@H](C)NC(=O)[C@H](CCC(N)=O)NC(=O)[C@H](CCC(=O)O)NC(=O)[C@H](CCC(=O)O)NC(=O)[C@H](CC(C)C)NC(=O)[C@H](Cc1ccc(O)cc1)NC(=O)[C@H](CCCCNC(=O)COCCOCCNC(=O)COCCOCCNC(=O)CC[C@H](NC(=O)CCCCCCCCCCCCC(=O)O)C(=O)O)NC(=O)[C@H](CO)NC(=O)[C@@H](NC(=O)[C@H](CC(=O)O)NC(=O)[C@H](CO)NC(=O)[C@@H](NC(=O)[C@H](Cc1ccccc1)NC(=O)[C@@H](NC(=O)CNC(=O)[C@H](CCC(=O)O)NC(=O)C(C)(C)NC(=O)[C@@H](N)Cc1c[nH]cn1)[C@@H](C)O)[C@@H](C)O)C(C)C)C(=O)N[C@@H](C)C(=O)N[C@@H](Cc1c[nH]c2ccccc12)C(=O)N[C@@H](CC(C)C)C(=O)N[C@H](C(=O)N[C@@H](CCCNC(=N)N)C(=O)NCC(=O)N[C@@H](CCCNC(=N)N)C(=O)NCC(=O)O)C(C)C [GLP-1 peptide 5, N{Epsilon-18}-[2-[2-[2-[[2-[2-[2-[[(4S)-4-carboxy-4-(13-carboxytridecanoylamino)butanoyl]amino]ethoxy]ethoxy]acetyl]amino]ethoxy]ethoxy]acetyl], —N{Epsilon-26}-[2-[2-[2-[[2-[2-[2-[[(4S)-4-carboxy-4-(13-carboxytridecanoylamino)butanoyl]-amino]ethoxy]ethoxy]acetyl]amino]ethoxy]ethoxy]acetyl]-[Aib8,Lys18,Glu22,Arg34]-GLP-1-(7-37)-peptide] (H-H[Aib]EGTFTSDVSK([AEEA-AEEA-γGlu-C14 diacid])YLEEQAAK([AEEA-AEEA-γGlu-C14 diacid])EFIAWLVRGRG-OH)	0.592	0.314
CC[C@H](C)[C@H](NC(=O)[C@H](Cc1ccccc1)NC(=O)[C@H](CCC(=O)O)NC(=O)[C@H](CCCCNC(=O)COCCOCCNC(=O)COCCOCCNC(=O)CC[C@H](NC(=O)CCCCCCCCCOc1ccc(C(=O)O)cc1)C(=O)O)NC(=O)[C@H](C)NC(=O)[C@H](C)NC(=O)[C@H](CCC(N)=O)NC(=O)[C@H](CCC(=O)O)NC(=O)[C@H](CCC(=O)O)NC(=O)[C@H](CC(C)C)NC(=O)[C@H](Cc1ccc(O)cc1)NC(=O)[C@H](CCCCNC(=O)COCCOCCNC(=O)COCCOCCNC(=O)CC[C@H](NC(=O)CCCCCCCCCOc1ccc(C(=O)O)cc1)C(=O)O)NC(=O)[C@H](CO)NC(=O)[C@@H](NC(=O)[C@H](CC(=O)O)NC(=O)[C@H](CO)NC(=O)[C@@H](NC(=O)[C@H](Cc1ccccc1)NC(=O)[C@@H](NC(=O)CNC(=O)[C@H](CCC(=O)O)NC(=O)C(C)(C)NC(=O)[C@@H](N)Cc1c[nH]cn1)[C@@H](C)O)[C@@H](C)O)C(C)C)C(=O)N[C@@H](C)C(=O)N[C@@H](Cc1c[nH]c2ccccc12)C(=O)N[C@@H](CC(C)C)C(=O)N[C@H](C(=O)N[C@@H](CCCNC(=N)N)C(=O)NCC(=O)N[C@@H](CCCNC(=N)N)C(=O)NCC(=O)O)C(C)C [GLP-1 peptide 4, N{Epsilon-18}-[2-[2-[2-[[2-[2-[2-[[(4S)-4-carboxy-4-[10-(4-carboxyphenoxy)-decanoylamino]butanoyl]amino]ethoxy]ethoxy]acetyl]amino]ethoxy]ethoxy]acetyl], N{Epsilon-26}-[2-[2-[2-[[2-[2-[2-[[(4S)-4-carboxy-4-[10-(4-carboxyphenoxy)decanoylamino]butanoyl]-amino]ethoxy]ethoxy]acetyl]amino]ethoxy]ethoxy]acetyl]-[Aib8,Lys18,Glu22,Arg34]-GLP-1-(7-37)-peptide] (H-H[Aib]EGTFTSDVSK([AEEA-AEEA-γGlu-Decanoyl(10-(4-HOOC-PhO))])YLEEQAAK([AEEA-AEEA-γGlu-Decanoyl(10-(4-HOOC-PhO))])EFIAWLVRGRG-OH)	0.529	0.204
